Measurements reported in US20150250714A1, “PHARMACEUTICAL COMPOSITIONS AND DELIVERY DEVICES COMPRISING STINGING CELLS OR CAPSULES” (NANOCYTE (ISRAEL) LTD., priority 2010, published 2015).
Read-outs that look alike come from different tables or passages of the source.

Assays:
[1] = topical 400 mg
Protocol: Cnidocysts were isolated from the filament acontia of Aiptasia diaphana based on their high density and high stability in salts as described previously (1, 2) (FIGS. 1A-C). Briefly, filaments were incubated in 1M sodium citrate, followed by two centrifugations in 70% percoll gradients. The isolated cnidocysts were washed with decreasing concentrations of NaCl (1M to 0.2M) and freeze-dried. The purified cnidocysts were kept dry until use, or formulated in an anhydrous gel consisting of 2% hydroxyl propyl cellulose in absolute ethanol.
The study included 3 dosing sessions as detailed in Table 3 below.

[2] = oral; cited from earlier work

SMILES	Cumulative Value (CV) % of atropine concentrations, Topical ([1]; Time 0.17) [%]	Cumulative Value (CV) % of atropine concentrations, Topical ([1]; Time 0.25) [%]	Cumulative Value (CV) % of atropine concentrations, Topical ([1]; Time 0.5) [%]	Cumulative Value (CV) % of atropine concentrations, Topical ([1]; Time 0.75) [%]	Cumulative Value (CV) % of atropine concentrations, Topical ([1]; Time 1) [%]	Cumulative Value (CV) % of atropine concentrations, Topical ([1]; Time 2) [%]	Cumulative Value (CV) % of atropine concentrations, Topical ([1]; Time 4) [%]	Cumulative Value (CV) % of atropine concentrations, Topical ([1]; Time 12) [%]	Cumulative Value (CV) % of atropine concentrations, Topical ([1]; Time 24) [%]	fraction absorbed when taken orally [2] [%]
CN1[C@@H]2CC[C@H]1C[C@@H](OC(=O)C(CO)c1ccccc1)C2 (mixture of isomers) [atropine, Atropine]	43.6	76.9	42.5	148.9	103.7	98.9	113.2	96.4	144.3	
NCCCC(O)(P(=O)(O)O)P(=O)(O)O [sodium alendronate]										0.64
